The test system of test [1] is Rattus norvegicus. The test is described as follows: Hypotensive activity against normotensive anesthetized Wistar rat assessed as reduction in mean arterial blood pressure up to 5 mg/kg, iv.
In test [2] the test system is Rattus norvegicus. The test is described as follows: Hypotensive activity against normotensive anesthetized Wistar rat assessed as reduction in mean arterial blood pressure at 1 ug/kg, iv. The test is classed as functional. Set-up: scale not given: the % may be the effect or the level left.
Test [3] relates to Rattus norvegicus. Kind of test: Hypotensive activity against normotensive anesthetized Wistar rat assessed as reduction in mean arterial blood pressure up to 5 ug/kg, iv. Format: functional, organism-based.
The subject of test [4] is Rattus norvegicus. Kind of test: Hypotensive activity against normotensive anesthetized Wistar rat assessed as reduction in mean arterial blood pressure at 3 ug/kg, iv. Further details: scale not given: the % may be the effect or the level left. The test is classed as functional.
Test [5] relates to Rattus norvegicus. Kind of test: Hypotensive activity against normotensive anesthetized Wistar rat assessed as reduction in mean arterial blood pressure at 3 mg/kg, iv. Further details: scale not given: the % may be the effect or the level left.

The source made the active and inactive calls. The rule behind the calls is not given here.

On to `CC(=O)O[C@@H]1[C@@H](O)[C@@H](O)[C@H](Oc2ccc(CC#N)cc2)O[C@H]1C`, for which the result in the test with Rattus norvegicus [1] was inactive.
Turning to `CC(=O)OCC[N+](C)(C)C` [ACETYLCHOLINE], the Activity with Rattus norvegicus [2] was found to be 59.5%.
For the compound `CCOC(=S)NCc1ccc(O[C@@H]2O[C@@H](C)[C@H](OC(C)=O)[C@@H](O)[C@H]2O)cc1` [listing 1 of 3 here], the outcome in the test on Rattus norvegicus [3] was Active.
As to `CCOC(=S)NCc1ccc(O[C@@H]2O[C@@H](C)[C@H](OC(C)=O)[C@@H](O)[C@H]2O)cc1` [listing 2 of 3 here], the Activity in the test on Rattus norvegicus [4] was found to be 40.33%.
Take `CCOC(=S)NCc1ccc(O[C@@H]2O[C@@H](C)[C@H](OC(C)=O)[C@@H](O)[C@H]2O)cc1` [listing 3 of 3 here]: the Activity in the test with Rattus norvegicus [4] came out at 37.51%.
With `CC(=O)O[C@@H]1[C@@H](O)[C@@H](O)[C@H](Oc2ccc(CN=C=S)cc2)O[C@H]1C`, the Activity in the test with Rattus norvegicus [5] is 34.91%. Also, in the test on Rattus norvegicus [1], the result was Active.
On to `C[C@@H]1O[C@@H](Oc2ccc(CC#N)cc2)[C@H](O)[C@H](O)[C@H]1O`, for which the outcome in the test on Rattus norvegicus [1] was inactive.

Source of the values: ChEMBL document CHEMBL1148059, “Isolation and structure elucidation of new nitrile and mustard oil glycosides from Moringa oleifera and their effect on blood pressure” (1994).
